Assay results: patent US7524943B2, “Method for the production of plant seed with modified fiber content and modified seed coat” (National Research Council of Canada, priority 2001, dated 2009)

B1: CJAS1 cDNA: copper chloride-induced cDNA from B. carinata, expressed in antisense orientation from a double 35S promoter (nucleic acid, listed as Brassica carinata)
DNA: ATTGCACCTCTCTCTTTATTCTCTCTCTGCTAATCAACCACTCTCTCTATTTACGTTAGCCGGTAAAAAAATGGTTGAGCAGAAAAAGTTCGCTCTGTTTCTAGCGACTCCTGATTCAGAGTTCGTGAAGAAAGAGTACGGAGGATACCACAACGTGTTCGTGTCCACGTTCGGTGACGAAGGAGAGCATTGGGACTCGTTTAGAGTCGTTGAAGGCGAGTTTCCCGACGAGAAAGATCTTGACAAGTACGACGGTTTCGTTATTAGTGGAAGCTCTCACGATTCCTTCGAGAATGATCCTTGGATCCTTAGGCTATGTGAGATCGTCAAGATACTCGATGAGAAGAAGAAGAAAATTCTTGGCATATGCTTTGGTCACCAGATCATAGCCAGAGTAAGAGGAGGAACAGTGGGAAGAGCAAGGAAGGGACCAGAACTTAAGCTTACAGACATAACCATCGTGAAGGATGCGATTAAACCAGGAAGTTTCTTCGGAAACGAGATTCCGGATAGCATAGCCATCCTAAAGTTACATCAGGACGAAGTGTTAGTGTTGCCTGAATCTGCTAAAGTACTAGCTTATTCAGAAAAGTACGAGGTGGAGATGTTCTCCATTGAGGATCATTTATTCTGTATTCAAGGACATCCCGAGTATAACAGAGAGATTCTCCACGAGATCGTTGATCGTGTTCTTCGTCTTGGCTTCATCAAGGAAGATTTTGCGGATGCGGCAAAAGCCTCGATGGAGAATAGGGGAGCAGACAGGAAACTTTTGGAGACGATTTGCAAGAATTTTCTCAAAGGCAGAGTTCCAGCTAATTAATTAGTTTCACTCCCAAATTATCTATTTGGCTCTTGTTATATTGGAGCTAGCACTTATGGATTTATTATCTTGCTGTATTGTATTCAATATATAACCTATTAATCTCATCCTTGTCAAGGAAACAAAAACTCATATTAATCTCAATGTCATATTTATGTGTTGTTACCCATAAGTAAAATTATTCAATAAAAACTATAGTTTTGCAAAAAAAAAAAAAAAAA

Legend:
[1] = tested on: CJAS1 gene; assay: CJAS1 gene expression by Northern blot after treatments; type: in vivo, B. carinata; details: treatment of wild-type Brassica plants; data not shown
From the text: CJAS1 gene expression was studied via Northern blot of various plant tissues taken from wild-type Brassica plants (data not shown). […] The amount of transcript in flower bud and silique was slightly greater than in the other tissues. […] The rapid response to Cu and MeJA implies a control mechanism sensitive to membrane damage. The activation of CJAS1 transcription by the four different compounds is unusual but not without precedent.

[2] = tested on: CJAS1; assay: Inhibitor effects on induction/expression of CJAS1; type: in vivo, B. carinata; details: data not shown; for CJAS1 transcript accumulation: non-induced material
Experimental: The effects of the nitric oxide (NO) scavenger 2-phenyl-4,4,5,5-tetramethylimidazolinone-3-oxide-1-oxyl (PTIO), the protein phosphatase type 1 and 2A inhibitor okadaic acid (OKA), the serine/threonine protein kinases inhibitor staurosporine (STAU) and the protein translation inhibitor cycloheximide (CHX) were determined on induction/expression of CJAS1 in B. carinata.

[3] = tested on: B. carinata; assay: Visual characterization of seed coat color of transformed B. carinata; type: in vivo
From the text: The plant transformation vectors carrying the antisense genes made with the defense-related cDNAs were used for plant transformation. The plant species used for transformation was a selection of B. carinata, the same selection that was originally treated with Copper chloride. This selection of B. carinata has dark-colored, thick seed coats. For transformation, Agrobacterium tumifaciens strain GV3101/pMP90 (C. Koncz and J. Schell, 1986, Mol. Gen. Genet. 204:383-396) was used. The transformation vectors were introduced into the Agrobacterium strain using standard techniques. Plant explants were co-cultured for three days then transferred to selective media. Plants were selected on kanamycin.
Transformed B. carinata were analyzed by visual characterization. […] A sample comparison of seeds obtained from wild-type B. carinata and transgenic B. carinata expressing antisense CJAS1 (SEQ ID NO:1) is shown in FIG. 2a and FIG. 2b.

[4] = tested on: Escherichia coli GMP synthetase mutant ght1; assay: Complementation of Escherichia coli GMP synthetase mutant ght1; type: cell-based; details: cDNA in expression vector
From the text: Thus, it is postulated that the protein encodes an amidotransferase activity distinct from GMP synthase that utilizes an aromatic compound for a substrate. This is analogous to a similar step seen for the phenylpropanoid pathway, another pathway that is involved in the formation of fiber (and the seed coat) and is a pathway that utilizes aromatic compounds. In the phenylpropanoid pathway, L-phenyalanine, an aromatic amino acid, is a substrate for the enzyme phenyalanine ammonia lyase (PAL). The enzymatic activity of PAL leads to the formation of cinnamic acid by deamination which eventually leads to the formation of lignin monomers. In the present case, CJAS1 may be a subunit of an enzyme that encodes a […] activity utilized within another secondary metabolite pathway and reduction of the enzyme activity (as evidenced by antisense RNA inhibition of the gene expression) can lead to alteration in the formation of phenolic-related compounds. This alteration may further affect the formation of other compounds in the seed, in particular, compounds that are known to be related to fiber formation.

Row | Molecule | amount of CJAS1 transcript [1] | CJAS1 transcript accumulation [2] | also measured
1 | CC1=CC(=O)CC(C)(C)C1(O)/C=C/C(C)=C\C(=O)O (stereo not drawn) [ABA] | further increased |  | 
2 | [Cl][Cu][Cl] [Cu, copper chloride] | further increased |  | 
3 | CC/C=C\CC1C(=O)CCC1CC(=O)OC (stereo not drawn) [MeJA] | further increased |  | 
4 | C=C1[C@@H](O)[C@@H]2O[C@]3(CC[C@H](/C=C/[C@@H](C)[C@@H]4CC(C)=C[C@@]5(O[C@H](C[C@@](C)(O)C(=O)O)CC[C@H]5O)O4)O3)CC[C@H]2O[C@@H]1[C@@H](O)C[C@H](C)[C@H]1O[C@@]2(CCCCO2)CC[C@H]1C [OKA, okadaic acid] |  | increased | 
5 | CC1(C)N([O])C(c2ccccc2)=[N+]([O-])C1(C)C [PTIO, 2-phenyl-4,4,5,5-tetramethylimidazolinone-3-oxide-1-oxyl] |  | increased | 
6 | O=C(O)c1ccccc1O [SA] | further increased |  | 
7 | CN[C@@H]1C[C@H]2O[C@@](C)([C@@H]1OC)n1c3ccccc3c3c4c(c5c6ccccc6n2c5c31)C(=O)NC4 [STAU, staurosporine] |  | increased | interaction with MeJA in induction of CJAS1 expression ([2]; with MeJA): acted synergistically
8 | C[C@@H]1C[C@@H]([C@H](O)CC2CC(=O)NC(=O)C2)C(=O)[C@@H](C)C1 [cycloheximide] |  | increased | 
9 | B1 |  |  | transformants producing a lighter-colored (yellow) seed ([3]; CJAS1 cDNA antisense): over 50%; seed coat color of transformed plants ([3]; antisense orientation, 35S promoter, B. carinata): yellow-colored seed coats; complementation of GMP synthetase mutant [4]: no complementation was observed
